Among the data in ChEMBL document CHEMBL5252578, “seco-Pregnane Glycosides from Australian Caustic Vine (Cynanchum viminale subsp. australe)” (J Nat Prod, 2023) are inhibition, Activity and IC50 values, retold here.

In test [1] the target is Cholinesterase (Equus caballus) (UniProt P81908). The experiment in a line: Inhibition of equine BuChE at 100 uM using […] as substrate incubated for 29 mins by Ellman's method relative to control. (In Ellman's method for cholinesterases, released thiocholine reacts with DTNB.)
For test [2], the system named is Sarcoptes scabiei. The experiment in a line: Miticidal activity against Sarcoptes scabiei Larva assessed as effect on larval mortality at 100 uM measured upto 48 hrs by microscopic analysis. Format: functional, organism-based.
The test system of test [3] is Sarcoptes scabiei. The test is described as follows: Miticidal activity against Sarcoptes scabiei assessed as mortality rate at 100 uM measured upto 48 hrs by microscopic analysis. Format: functional.
In test [4] the test system is Sarcoptes scabiei. The test is described as follows: Miticidal activity against Sarcoptes scabiei eggs assessed as effect on egg hatching at 100 uM measured upto 48 hrs by microscopic analysis. Format: functional, organism-based.
A further test has as its system HT-29. The test is described as follows: Cytotoxicity against human HT-29 cells assessed as cell growth inhibition measured after 6 days by SRB assay. Conditions: HT-29, 144 h. Format: functional, cell-based. (Sulforhodamine B stains cellular protein and so reports cell mass.)
A further test relates to NFF. The test is described as follows: Cytotoxicity against human NFF cells assessed as cell growth inhibition measured after 6 days by SRB assay. Format: functional, cell-based. The note with it: 144 h.
A further test relates to MCF7. The test is described as follows: Cytotoxicity against human MCF7 cells assessed as cell growth inhibition measured after 6 days by SRB assay. The note with it: MCF7, 144 h. Format: functional, cell-based.
A further test has as its system HeLa. The experiment in a line: Cytotoxicity against human HeLa cells assessed as cell growth inhibition measured after 6 days by SRB assay. Format: functional, cell-based. The note with it: 144 h.
The subject of another test is MM96L. The test is described as follows: Cytotoxicity against human MM96L cells assessed as cell growth inhibition measured after 6 days by SRB assay. Format: functional, cell-based. The note with it: 144 h.

Calls of active or inactive are those of the source. The rule behind the calls is not given here.

Sequence of Cholinesterase (Equus caballus) (P81908 whole entry): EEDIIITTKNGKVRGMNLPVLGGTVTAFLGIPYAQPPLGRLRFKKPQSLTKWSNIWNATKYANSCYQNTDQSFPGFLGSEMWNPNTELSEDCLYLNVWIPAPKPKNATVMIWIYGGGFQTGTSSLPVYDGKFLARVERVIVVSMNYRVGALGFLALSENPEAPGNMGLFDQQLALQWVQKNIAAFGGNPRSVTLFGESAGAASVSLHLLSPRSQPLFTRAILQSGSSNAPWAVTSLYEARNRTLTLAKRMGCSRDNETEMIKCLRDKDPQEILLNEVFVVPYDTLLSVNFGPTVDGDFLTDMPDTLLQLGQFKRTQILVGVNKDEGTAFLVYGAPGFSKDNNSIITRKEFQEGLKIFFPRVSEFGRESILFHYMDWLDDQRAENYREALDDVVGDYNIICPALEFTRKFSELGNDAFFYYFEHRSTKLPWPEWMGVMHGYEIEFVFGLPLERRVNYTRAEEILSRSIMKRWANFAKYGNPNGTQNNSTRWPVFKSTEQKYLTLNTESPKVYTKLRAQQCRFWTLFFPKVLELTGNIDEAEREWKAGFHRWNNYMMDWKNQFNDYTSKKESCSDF

`CC(=O)O[C@H](C[C@H]1C(=O)CC=C2C[C@@H](O)CC[C@@]21C)[C@@]1(C)C(=O)CC[C@H]1C(C)=O` displayed an inhibition in [1] of 7.72%.

`CO[C@H]1C[C@H](O[C@H]2[C@@H](OC)C[C@H](O[C@H]3CC[C@@]4(C)C(=CCC(=O)[C@@H]4C[C@@H](OC(C)=O)[C@@]4(C)C(=O)CC[C@H]4C(C)=O)C3)O[C@@H]2C)O[C@H](C)[C@H]1O`: the outcome with Sarcoptes scabiei [2] and in the test with Sarcoptes scabiei [4] was inactive. In the test with Sarcoptes scabiei [3], the Activity amounted to 30%. Moreover, the inhibition in [1] came to 13.5%.

Take `C[C@@]1([C@@H](C[C@H]2C(=O)CC=C3C[C@@H](O)CC[C@@]32C)OC(=O)c2ccccc2)C(=O)[C@@]2(C)CC[C@@H]1O2`: the IC50 in the test on HT-29, in the test on NFF, in the test on MCF7, with HeLa and in the test on MM96L was over 10 µM throughout. The inhibition in test [1] stood at 14%.

With `CO[C@H]1C[C@H](O[C@H]2CC[C@@]3(C)C(=CCC(=O)[C@@H]3C[C@@H](OC(C)=O)[C@@]3(C)C(=O)CC[C@H]3C(C)=O)C2)O[C@H](C)[C@H]1O[C@H]1C[C@@H](OC)[C@H](O)[C@@H](C)O1`, the outcome with Sarcoptes scabiei [2], in the test with Sarcoptes scabiei [3] and in the test on Sarcoptes scabiei [4] was inactive. In addition, in [1], the inhibition was found to be 2.64%.

As a reminder, the inhibition is the share of the control response that was lost under treatment. A low value points to a response near the control. As usually defined, the IC50 is the midpoint of a concentration-inhibition curve.
